The target in this test is T1, hTAS1R1 H71A/rTAS1R3 (UniProt Q7RTX1+Q923K1, H71A).
T1 construct: The cDNA coding region of rTAS1R3 was synthesized with optimized-codon usage for human expression; expressed in transfected cells; host or cells: HEK293T/17
T1 sequence (Q7RTX1 21-841 H71A): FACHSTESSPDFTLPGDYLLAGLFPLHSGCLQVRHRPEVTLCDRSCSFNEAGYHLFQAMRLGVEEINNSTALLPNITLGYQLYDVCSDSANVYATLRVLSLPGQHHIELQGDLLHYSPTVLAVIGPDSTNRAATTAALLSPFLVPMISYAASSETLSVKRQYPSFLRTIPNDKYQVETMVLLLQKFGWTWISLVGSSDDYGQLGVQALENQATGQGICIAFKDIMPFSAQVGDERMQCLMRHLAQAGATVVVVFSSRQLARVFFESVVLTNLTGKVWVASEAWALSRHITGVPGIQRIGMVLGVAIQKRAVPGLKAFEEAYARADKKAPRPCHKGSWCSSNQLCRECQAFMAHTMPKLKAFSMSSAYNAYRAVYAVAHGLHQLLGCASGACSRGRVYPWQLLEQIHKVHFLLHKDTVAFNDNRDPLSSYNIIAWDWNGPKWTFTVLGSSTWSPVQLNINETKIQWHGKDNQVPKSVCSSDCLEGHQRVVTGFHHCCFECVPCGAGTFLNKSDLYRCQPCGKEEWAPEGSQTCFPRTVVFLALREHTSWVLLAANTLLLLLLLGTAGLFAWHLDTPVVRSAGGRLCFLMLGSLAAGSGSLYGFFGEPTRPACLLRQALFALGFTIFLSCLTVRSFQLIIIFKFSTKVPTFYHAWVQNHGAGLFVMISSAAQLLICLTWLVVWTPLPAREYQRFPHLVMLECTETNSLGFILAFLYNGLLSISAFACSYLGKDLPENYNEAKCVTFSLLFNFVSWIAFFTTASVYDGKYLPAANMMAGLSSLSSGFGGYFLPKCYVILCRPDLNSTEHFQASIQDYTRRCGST
T1 sequence (Q923K1 21-858): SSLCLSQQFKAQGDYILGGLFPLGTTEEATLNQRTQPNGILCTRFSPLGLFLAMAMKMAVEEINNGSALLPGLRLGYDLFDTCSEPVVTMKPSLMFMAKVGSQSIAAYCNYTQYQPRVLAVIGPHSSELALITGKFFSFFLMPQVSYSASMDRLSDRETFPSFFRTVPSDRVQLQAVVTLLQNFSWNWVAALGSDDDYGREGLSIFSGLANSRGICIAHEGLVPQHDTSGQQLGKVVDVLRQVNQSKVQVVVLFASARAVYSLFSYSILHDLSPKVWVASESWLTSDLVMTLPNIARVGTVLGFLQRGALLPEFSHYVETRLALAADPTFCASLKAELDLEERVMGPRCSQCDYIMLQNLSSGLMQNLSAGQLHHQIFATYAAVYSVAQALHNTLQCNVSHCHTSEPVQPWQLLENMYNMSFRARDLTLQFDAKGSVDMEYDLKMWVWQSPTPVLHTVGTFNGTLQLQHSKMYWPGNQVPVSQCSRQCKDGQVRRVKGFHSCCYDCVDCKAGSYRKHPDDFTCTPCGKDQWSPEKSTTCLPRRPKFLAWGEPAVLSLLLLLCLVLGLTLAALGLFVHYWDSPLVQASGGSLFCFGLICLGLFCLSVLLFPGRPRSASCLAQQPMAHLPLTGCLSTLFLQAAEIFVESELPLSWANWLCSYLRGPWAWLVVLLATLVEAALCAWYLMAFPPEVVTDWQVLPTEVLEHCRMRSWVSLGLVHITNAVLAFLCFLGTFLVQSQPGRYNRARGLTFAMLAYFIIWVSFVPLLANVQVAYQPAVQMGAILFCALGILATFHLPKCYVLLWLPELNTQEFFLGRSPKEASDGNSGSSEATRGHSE
Description: Calcium assay, hTAS1R1 mutant co-expressed with rTAS1R3. In kind it is cell-based, human, rat.

The record followed here is PMC12615753, “Glutathione as a taste modulator: molecular mechanisms of interaction with umami and sweet taste receptors” (Food Chemistry: Molecular Sciences, 2025).

As for `N[C@@H](CCC(=O)N[C@@H](CS)C(=O)NCC(=O)O)C(=O)O` [GSH, γ-L-glutamyl-L-cysteinyl-glycine], the EC50 was found to be 2030 ± 416 µM. The “effect of the added compound (1 mM) on the response to L-Glu” value (H71A) is on record as “did not affect”. Moreover, for the setting “H71A, GSH”, the “Max ∆F/F0” value is 0.44 ± 0.03 and the “R1 = mutant EC50/WT EC50” value is on record as 0.8.
For `CCCC(CCC)NC(=O)c1ccc2c(c1)OCO2` [S807, N-(heptan-4-yl)benzo[d][1,3]dioxole-5-carboxamide, reference compound], the “response to the agonist alone, vs WT” value (H71A) is “strongly affected”.

Usually EC50 stands for the concentration needed to bring the measured effect to its halfway point.
